Earlier results on one substance are cited in patent publication US20230255250A1, “COMPOSITION FOR NUTRITIONAL SUPPLEMENTATION THAT PREVENTS DAMAGE CAUSED BY OXIDATIVE STRESS, HAVING AS PRINCIPLES XANTHOPHYLLS FROM MICROALGAE” (priority 2022, published 2023).

The conditions of series [1]: water at room temperature.
For series [2] the following is noted: doses less than 500 mg/kg intravenously.

For the substance “2-Hydroxylpropyl-beta-cyclodextrin [HP-β-CD]”, in the series on dendritic cells (HP-β-CD stimulated dendritic cells), the “regulation of molecules such as MHC proteins, and of PD-L1/L2” value is recorded as “remarkable regulation”. Further, in the series on dendritic cells (treated with HP-β-CD), the “production of IL-6” value is given as “increased”, the “production of IL-10” value is “increased” and the “production of TNF-α” value is listed as “increased”. For the same substance, the “proliferation and activation of T lymphocytes” value with T lymphocytes is “induces proliferation and activation”. The solubility in water result in series [1] is given as “greater than 500 mg/mL”. Further, the toxicity entry in series [2] was “not toxic”.
